Patent publication US11766447B2, “3′3′-cyclic dinucleotide analogue comprising a cyclopentanyl modified nucleotide as sting modulator” (INSTITUTE OF ORGANIC CHEMISTRY AND BIOCHEMISTRY ASCR, V.V.I., priority 2019, dated 2023)

Assays:
AQ STING (G230A-R293Q) = target: T1, AQ STING (G230A-R293Q) (Homo sapiens, UniProt Q86WV6, G230A/H232R/R293Q); experiment: Differential scanning fluorimetry (DSF) with AQ STING; type: binding; details: thermal shift vs apoprotein; 150 μM CDN; truncated human AQ STING 0.1 mg/ml
T1 construct: 8xHis (N, cleaved yes); SUMO (N, cleaved yes); made in house; host or cells: E. coli Rosetta-gami B (DE3)
T1 sequence (Q86WV6 140-343 G230A/H232R/R293Q): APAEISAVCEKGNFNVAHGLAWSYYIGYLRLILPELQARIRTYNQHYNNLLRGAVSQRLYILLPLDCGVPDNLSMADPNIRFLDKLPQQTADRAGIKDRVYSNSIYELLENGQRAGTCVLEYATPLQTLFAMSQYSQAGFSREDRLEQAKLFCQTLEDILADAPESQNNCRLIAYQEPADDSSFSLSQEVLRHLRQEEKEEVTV
Protocol: (§1) Purified PCR products were cleaved with restriction enzymes BamHI (cat. #R0136S, NEB, Ipswich, USA) and NotI (cat. #R0189S, NEB, Ipswich, USA) and cloned into the pSUMO vector linearized with the identical enzymes.
(§2) DNase I (cat. #D5025, Sigma Aldrich, Czech Republic) and RNase A (cat. #R6513, Sigma Aldrich, Czech Republic) were added (final concentration 50 μg/ml) together with MgCl2 (final concentration 5 mmol·l^−1) to the homogenate and bacteria were lysed using French Press G-M™ High-Pressure Cell Press Homogenizer (1500 psi, 3 cycles). […] The resin was poured into a chromatography column, washed with 50 ml buffer A (50 mmol·l^−1 TrisCl (pH 8.0), 800 mmol·l^−1 NaCl, 3 mmol·l^−1 β-mercaptoethanol; 10% glycerol; 20 mmol·l^−1 imidazol) and 8-His-SUMO tagged STING proteins were eluted with 15 ml buffer A containing 300 mmol·l^−1 imidazole. […] Proteins were concentrated with Amicon® Ultra-15 10 K device (cat. #UFC901008, Merck Millipore, Billerica, USA) and flash frozen in liquid N2.
(§3) 20 μL solutions of the reaction mixtures were pipetted in triplicates into 96 well optical reaction plates and thermal denaturation of samples were performed on real time PCR cycler (LightCycler® 480 Instrument II—Roche, Basel, Switzerland). The first derivative of the thermal denaturation curves was performed to calculate denaturing temperatures of STING-CDN complexes and STING apoproteins. The thermal shift for each CDN was calculated by subtracting the average denaturing temperature of STING apoprotein from the average denaturing temperature of STING CDN complex.

WT STING [1] = target: T2, WT STING (Homo sapiens, UniProt Q86WV6, H232R); experiment: Digitonin assay using 293T wtSTING-FL reporter cells; type: cell-based; design: host or cells: 293T (ATCC CRL-3216), stably transfected, with 4xISRE firefly luciferase reporter; details: 293T wtSTING-FL cells, ISRE firefly luciferase; compounds in Digitonin buffer 30 minutes, then 5 hours; 8-point curve
Text: Two complementary oligonucleotides of the sequence […] […] […] […] […] The oligonucleotides were mixed in equal molar amounts, hybridized, and cleaved by restriction endonucleases HindIII (cat. #. R0104S, NEB, Ipswich, USA) and BglII (cat. #R0144S, NEB, Ipswich, USA). Ultimately, they were ligated into plasmid pGL4.27 (cat. #E6651, Promega, Madison, USA) linearized with the same enzymes. As result the sequence with four ISRE sites was placed upstream of the minimum promoter of firefly luciferase reporter gene.
After 5 minutes incubation at room temperature (RT), 250 μL of the mixture was added dropwise to the cells in one well. Cells were incubated 36 hours at 37° C. with 5% CO2, and then detached with 0.05% Trypsin and 0.22 g/L EDTA (both cat. #L0941, Biowest, Riverside, USA).
Transfected cells were seeded onto poly-D-lysine coated six well plates at density 50,000 cells per 1 cm^2 in DMEM medium with high glucose containing 10% heat inactivated FBS, 30 μg/mL blasticidin (cat. #ant-b1-05, InvivoGen, San Diego, USA), 0.06 mg/ml Penicillin G and 0.1 mg/ml Streptomycin Sulfate (both cat. #. L0018, Biowest, Riverside, USA). The medium was replenished every 3-4 days until visible colonies of cells resistant to blasticidin were formed.
Blasticidin resistant cells stably expressing WT STING were further transfected with […] plasmid following the same procedure as described above. […] Homogeneous culture of stably double transfected cells was prepared by limiting dilution of cells in 96 well plates and wells with cells were selected that originated from a single cell.
The medium was removed next day and three fold serial dilutions of compounds in Digitonin buffer containing 50 mmol·l^−1 HEPES (cat. #H3375, Sigma Aldrich, Czech Republic) pH 7.0, 100 mmol·l^−1 KCl, 3 mmol·l^−1 MgCl2, 0.1 mmol·l^−1 DTT (cat. #D0632, Sigma Aldrich, Czech Republic), 85 mmol·l^−1 Sucrose (cat. #S7903, Sigma Aldrich, Czech Republic), 0.2% BSA (cat. #A2153, Sigma Aldrich, Czech Republic), 1 mmol·l^−1 ATP (cat. #A1852, Sigma Aldrich, Czech Republic), 0.1 mmol·l^−1 GTP (cat. #G8877, Sigma Aldrich, Czech Republic), and 10 μg/mL Digitonin A (cat. #D141, Sigma Aldrich, Czech Republic) were added to the cells. The buffer was removed after 30 minutes incubation at 37° C. with 5% CO2, the cells were washed once with 100 μl of cultivation medium, and 100 μl of medium was added to each well. The plates with cells were incubated for 5 hours at 37° C. with 5% CO2, 50 μl of the medium was removed and 30 μl of ONE-Glo™ Luciferase Assay System reagent (cat. #E6120, Promega, Madison, USA) was added to each well. Luminescence was read on Synergy H1 (Biotek, Winooski, USA). GraphPad Prism (La Jolla, USA) was used to calculate the 50% effective concentration ([…] from an 8-point dose-response curve.
Target sequence in this assay (Q86WV6 whole entry H232R): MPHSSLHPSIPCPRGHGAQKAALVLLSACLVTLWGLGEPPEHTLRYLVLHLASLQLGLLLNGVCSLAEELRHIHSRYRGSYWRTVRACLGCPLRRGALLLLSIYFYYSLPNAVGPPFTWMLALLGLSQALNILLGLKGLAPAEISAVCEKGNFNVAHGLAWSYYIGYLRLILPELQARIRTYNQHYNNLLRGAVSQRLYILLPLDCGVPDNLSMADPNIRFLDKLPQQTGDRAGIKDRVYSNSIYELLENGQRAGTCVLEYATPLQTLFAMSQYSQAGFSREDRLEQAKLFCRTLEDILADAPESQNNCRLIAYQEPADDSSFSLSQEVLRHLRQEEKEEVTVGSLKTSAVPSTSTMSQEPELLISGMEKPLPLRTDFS

WT STING [2] = target: T2, WT STING; experiment: Differential scanning fluorimetry (DSF) with WT STING; type: binding; design: 8xHis (N, cleaved yes); SUMO (N, cleaved yes); made in house; host or cells: E. coli Rosetta-gami B (DE3); details: thermal shift vs apoprotein; 150 μM CDN; truncated human WT STING 0.1 mg/ml
Protocol: as §1, §2, §3
Target sequence in this assay (Q86WV6 140-343 H232R): as the sequence (Q86WV6 140-343 G230A/H232R/R293Q) above, with A91G, Q154R counted along it

| Compound | ΔTm at 150 µM (AQ STING (G230A-R293Q)) [°C] | EC50 (WT STING [1]) [nM] | ΔTm at 150 µM (WT STING [2]) [°C] |
| --- | --- | --- | --- |
| Nc1nc2c(ncn2[C@@H]2C[C@@H]3COP(=O)(O)OC4C(O)[C@H](n5cnc6c(N)ncnc65)O[C@@H]4COP(=O)(O)OC3C2O)c(=O)[nH]1 (stereo partly drawn) [Compound 113, 2-amino-9-((2R,3S,3a5,7aR,9R,10S,10aR,14aR)-2-(6-amino-9H-purin-9-yl)-3,5,10,12-tetrahydroxy-5,12-dioxidodecahydro-2H-cyclopenta[d]furo[3,2-j][1,3,7,9]tetraoxa[2,8]diphosphacyclododecin-9-yl)-1,9-dihydro-6H-purin-6-one] | 7.9 | 3600 | 2.1 |
| COC1C2OP(=O)(O)OC[C@H]3C[C@@H](n4cnc5c(N)ncnc54)C(O)C3OP(=O)(O)OC[C@H]2O[C@H]1n1cnc2c(=O)[nH]c(N)nc21 (stereo partly drawn) [Compound 114, 2-amino-9-((2R,3R,3aR,7aR,9R,10S,10aR,14aR)-9-(6-amino-9H-purin-9-yl)-5,10,12-trihydroxy-3-methoxy-5,12-dioxidodecahydro-2H-cyclopenta[d]furo[3,2-j][1,3,7,9]tetraoxa[2,8]diphosphacyclododecin-2-yl)-1,9-dihydro-6H-purin-6-one] | 4.6 | 21800 | 0.4 |
| Nc1nc2c(ncn2[C@H]2CC3OP(=O)(O)OC[C@H]4O[C@@H](n5cnc6c(N)ncnc65)C(F)C4OP(=O)(O)OC[C@H]3C2)c(=O)[nH]1 (stereo partly drawn) [Compound 116, (6R,8R,15R,17R)-17-(2-amino-6-oxo-6,9-dihydro-1H-purin-9-yl)-8-(6-amino-9H-purin-9-yl)-9-fluoro-3,12-dihydroxy-2,4,7,11,13-pentaoxa-3λ^5,12λ^5-diphosphatricyclo[13.3.0.0^6,10]octadecane-3,12-dione] | 13.1 | 7 | 8.5 |
| Nc1nc2c(ncn2[C@@H]2C[C@@H]3COP(=O)(O)OC4C(F)[C@H](n5cnc6c(=O)[nH]c(N)nc65)O[C@@H]4COP(=O)(O)OC3C2O)c(=O)[nH]1 (stereo partly drawn) [Compound 122, 9,9′-((2R,3R,3aR,7aR,9R,10S,10aR,14aR)-3-fluoro-5,10,12-trihydroxy-5,12-dioxidodecahydro-2H-cyclopenta[d]furo[3,2-j][1,3,7,9]tetraoxa[2,8]diphosphacyclododecine-2,9-diyl)bis(2-amino-1,9-dihydro-6H-purin-6-one)] | 9.5 | 1600 | 3.5 |
| Nc1nc2c(ncn2[C@H]2CC3OP(=O)(O)OC[C@H]4C[C@@H](n5cnc6c(=O)[nH]c(N)nc65)C(O)C4OP(=O)(O)OC[C@H]3C2)c(=O)[nH]1 (stereo partly drawn) [Compound 123, 9,9′-((2R,3S,3aR,7aR,9R,10aS,14aR)-3,5,12-trihydroxy-5,12-dioxidododecahydrodicyclopenta[d,j][1,3,7,9]tetraoxa[2,8]-diphospha-cyclododecine-2,9-diyl)bis(2-amino-1,9-dihydro-6H-purin-6-one)] | 4.6 | 1200 | 1.1 |
| Nc1ncnc2c1ncn2[C@H]1CC2OP(=O)(O)OC[C@H]3O[C@@H](n4cnc5c(N)ncnc54)CC3OP(=O)(O)OC[C@H]2C1 (stereo partly drawn) [Compound 126, (2R,3aS,7aR,9R,10aS,14aR)-2,9-bis(6-amino-9H-purin-9-yl)-5,12-dihydroxydecahydro-2H-cyclopenta[d]furo[3,2-j][1,3,7,9]tetraoxa[2,8]diphosphacyclododecine 5,12-dioxide] | 7.5 | 1800 | 1.1 |
| Nc1nc2c(ncn2[C@@H]2O[C@@H]3COP(=O)(O)O[C@@H]4[C@@H](COP(=O)(O)O[C@H]3[C@H]2F)C[C@@H](n2cnc3c(N)ncnc32)[C@@H]4F)c(=O)[nH]1 [Compound 131, (1R,6R,8R,9R,10R,15R,17R,18S)-8-(2-amino-6-oxo-6,9-dihydro-1H-purin-9-yl)-17-(6-amino-9H-purin-9-yl)-9,18-difluoro-3,12-dihydroxy-2,4,7,11,13-pentaoxa-3λ^5,12λ^5-diphosphatricyclo[13.3.0.0^6,10]octadecane-3,12-dione] | 21.4 | 10 | 13.4 |

More lines, now with the values ahead:

| ΔTm at 150 µM (AQ STING (G230A-R293Q)) [°C] | EC50 (WT STING [1]) [nM] | ΔTm at 150 µM (WT STING [2]) [°C] | Compound |
| --- | --- | --- | --- |
| 10.5 | 70 | 3.8 | Nc1nc2c(ncn2[C@H]2CC3OP(=O)(O)OC[C@H]4O[C@@H](n5cnc6c(N)ncnc65)C(O)C4OP(=O)(O)OC[C@H]3C2)c(=O)[nH]1 (stereo partly drawn) [Compound 115, (6R,8R,15R,17R)-17-(2-amino-6-oxo-6,9-dihydro-1H-purin-9-yl)-8-(6-amino-9H-purin-9-yl)-3,9,12-trihydroxy-2,4,7,11,13-pentaoxa-3λ^5,12λ^5-diphosphatricyclo[13.3.0.0^6,10]octadecane-3,12-dione] |
| 7.1 | 200 | 2.2 | Nc1nc2c(ncn2[C@H]2CC3OP(=O)(O)OC[C@H]4O[C@@H](n5cnc6c(N)ncnc65)CC4OP(=O)(O)OC[C@H]3C2)c(=O)[nH]1 (stereo partly drawn) [Compound 117, (6R,8R,15R,17R)-17-(2-amino-6-oxo-6,9-dihydro-1H-purin-9-yl)-8-(6-amino-9H-purin-9-yl)-3,12-dihydroxy-2,4,7,11,13-pentaoxa-3λ^5,12λ^5-diphosphatricyclo[13.3.0.0^6,10]octadecane-3,12-dione] |
| 5.1 | 13200 | 0.7 | Nc1ncnc2c1ncn2[C@H]1CC2OP(=O)(O)OC[C@H]3C[C@@H](n4cnc5c(N)ncnc54)CC3OP(=O)(O)OC[C@H]2C1 (stereo partly drawn) [Compound 125, (2R,3aS,7aR,9R,10aS,14aR)-2,9-bis(6-amino-9H-purin-9-yl)-5,12-dihydroxydodecahydrodicyclopenta[d,j][1,3,7,9]-tetraoxa[2,8]diphosphacyclododecine 5,12-dioxide] |
| 7.9 | 100 | 2.6 | Nc1ncnc2c1ncn2[C@@H]1C[C@@H]2COP(=O)(O)O[C@H]3[C@@H](F)[C@H](n4cnc5c(N)ncnc54)O[C@@H]3COP(=O)(O)O[C@H]2[C@@H]1F [Compound 127, (1R,6R,8R,9R,10R,15R,17R,18R)-8,17-bis(6-amino-9H-purin-9-yl)-9,18-difluoro-3,12-dihydroxy-2,4,7,11,13-pentaoxa-3λ^5,12λ^5-diphosphatricyclo[13.3.0.0^6,10]octadecane-3,12-dione] |
